System: HCT116 colorectal cancer cells
Experiment: Cisplatin sensitization assay (96 h cell viability MTS);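 also: compound concentration needed to lower the Cisplatin-alone IC50 by a set fold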
Format: cell-based
Conditions: 96 h MTS, compound plus Cisplatin
Method in brief: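 Viability is measured with MTS reagent, added after 96 h and developed for 1 h at 37° C. Beforehand, cells receive compound and cisplatin simultaneously in a concentration matrix of 2-fold serial dilutions starting at 10 μM final.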

SMILES	Cisplatin Sensitization Assay
C[C@@H]1CN(C(=O)C2CCN(c3c(F)cncc3NC(=O)c3c(N)nn4cc(F)cnc34)CC2)CCN1C [I-G-50, (R)-2-amino-N-(4-(4-(3,4-dimethylpiperazine-1-carbonyl)piperidin-1-yl)-5-fluoropyridin-3-yl)-6-fluoropyrazolo[1,5-a]pyrimidine-3-carboxamide]	+++ (Compounds with a Cisplatin sensitization value of <0.02 μM are marked with “+++.”)
CCn1cncc1-c1ccncc1NC(=O)c1c(N)nn2cc(F)cnc12 [I-C-80, 2-amino-N-(4-(1-ethyl-1H-imidazol-5-yl)pyridin-3-yl)-6-fluoropyrazolo[1,5-a]pyrimidine-3-carboxamide]	+++ (Compounds with a Cisplatin sensitization value of <0.02 μM are marked with “+++.”)
Nc1nn2cc(F)cnc2c1C(=O)Nc1cnccc1N1CCC(c2ncon2)CC1 [I-N-241, N-(4-(4-(1,2,4-oxadiazol-3-yl)piperidin-1-yl)pyridin-3-yl)-2-amino-6-fluoropyrazolo[1,5-a]pyrimidine-3-carboxamide]	+++ (Compounds with a Cisplatin sensitization value of <0.02 μM are marked with “+++.”)
CN1CCC(Oc2ccncc2NC(=O)c2c(N)nn3cc(Cl)cnc23)CC1 [I-O-64, 2-amino-6-chloro-N-(4-((1-methylpiperidin-4-yl)oxy)pyridin-3-yl)pyrazolo[1,5-a]pyrimidine-3-carboxamide]	+++ (Compounds with a Cisplatin sensitization value of <0.02 μM are marked with “+++.”)
Nc1nn2cc(F)cnc2c1C(=O)Nc1cnccc1N1CCC(S(=O)(=O)N2CCN3CCC2CC3)CC1 [I-N-196, N-(4-(4-(1,4-diazabicyclo[3.2.2]nonan-4-ylsulfonyl)piperidin-1-yl)pyridin-3-yl)-2-amino-6-fluoropyrazolo[1,5-a]pyrimidine-3-carboxamide]	+++ (Compounds with a Cisplatin sensitization value of <0.02 μM are marked with “+++.”)
CN1C2CCC1CN(C(=O)C1CCN(c3c(F)cncc3NC(=O)c3c(N)nn4cc(F)cnc34)CC1)C2 [I-G-52, 2-amino-6-fluoro-N-(5-fluoro-4-(4-(8-methyl-3,8-diazabicyclo[3.2.1]octane-3-carbonyl)piperidin-1-yl)pyridin-3-yl)pyrazolo[1,5-a]pyrimidine-3-carboxamide]	+++ (Compounds with a Cisplatin sensitization value of <0.02 μM are marked with “+++.”)
CN1CCN(C(=O)c2ccc(-c3ccncc3NC(=O)c3c(N)nn4cc(F)cnc34)cn2)CC1 [I-C-19, 2-amino-6-fluoro-N-(6-(4-methylpiperazine-1-carbonyl)-[3,4′-bipyridin]-3′-yl)pyrazolo[1,5-a]pyrimidine-3-carboxamide]	++ (Compounds with a Cisplatin sensitization value >0.02 μM but <0.2 μM are marked with “++.”)
Nc1nn2cc(Cl)cnc2c1C(=O)Nc1cnccc1N1CCN2CCC1CC2 [I-N-56, N-(4-(1,4-diazabicyclo[3.2.2]nonan-4-yl)pyridin-3-yl)-2-amino-6-chloropyrazolo[1,5-a]pyrimidine-3-carboxamide]	++ (Compounds with a Cisplatin sensitization value >0.02 μM but <0.2 μM are marked with “++.”)
Nc1nn2cc(F)cnc2c1C(=O)Nc1cncc(Cl)c1N1CCC(C(=O)N2CCN3CCC2CC3)CC1 [I-G-66, N-(4-(4-(1,4-diazabicyclo[3.2.2]nonane-4-carbonyl)piperidin-1-yl)-5-chloropyridin-3-yl)-2-amino-6-fluoropyrazolo[1,5-a]pyrimidine-3-carboxamide]	+++ (Compounds with a Cisplatin sensitization value of <0.02 μM are marked with “+++.”)
Nc1nn2cc(F)cnc2c1C(=O)Nc1cnccc1O[C@@H]1CN2CCC1CC2 [I-O-10, (S)-2-amino-6-fluoro-N-(4-(quinuclidin-3-yloxy)pyridin-3-yl)pyrazolo[1,5-a]pyrimidine-3-carboxamide]	+++ (Compounds with a Cisplatin sensitization value of <0.02 μM are marked with “+++.”)
Nc1nn2cc(F)cnc2c1C(=O)Nc1cncc(F)c1N1CCC(C(=O)N2CCC(N3CCC3)CC2)CC1 [I-G-68, 2-amino-N-(4-(4-(4-(azetidin-1-yl)piperidine-1-carbonyl)piperidin-1-yl)-5-fluoropyridin-3-yl)-6-fluoropyrazolo[1,5-a]pyrimidine-3-carboxamide]	+++ (Compounds with a Cisplatin sensitization value of <0.02 μM are marked with “+++.”)
CNC1CN(C(=O)C2CCN(c3c(F)cncc3NC(=O)c3c(N)nn4cc(F)cnc34)CC2)C1 [I-G-34, 2-amino-6-fluoro-N-(5-fluoro-4-(4-(3-(methylamino)azetidine-1-carbonyl)piperidin-1-yl)pyridin-3-yl)pyrazolo[1,5-a]pyrimidine-3-carboxamide]	+++ (Compounds with a Cisplatin sensitization value of <0.02 μM are marked with “+++.”)
Nc1nn2cc(F)cnc2c1C(=O)Nc1cnccc1C1CCN(C(=O)C2CC2)CC1 [I-C-70, 2-amino-N-(4-(1-(cyclopropanecarbonyl)piperidin-4-yl)pyridin-3-yl)-6-fluoropyrazolo[1,5-a]pyrimidine-3-carboxamide]	+++ (Compounds with a Cisplatin sensitization value of <0.02 μM are marked with “+++.”)
Nc1nn2cc(F)cnc2c1C(=O)Nc1cnccc1N1CCN(C2CC2)CC1 [I-N-33, 2-amino-N-(4-(4-cyclopropylpiperazin-1-yl)pyridin-3-yl)-6-fluoropyrazolo[1,5-a]pyrimidine-3-carboxamide]	+ (Compounds with a Cisplatin sensitization value >0.2 μM but <5 μM are marked with “+.”)
Nc1nn2cc(Cl)cnc2c1C(=O)Nc1cnccc1N1CCN2CCC[C@H]2C1 [I-N-71, (S)-2-amino-6-chloro-N-(4-(hexahydropyrrolo[1,2-a]pyrazin-2(1H)-yl)pyridin-3-yl)pyrazolo[1,5-a]pyrimidine-3-carboxamide]	+++ (Compounds with a Cisplatin sensitization value of <0.02 μM are marked with “+++.”)
Cc1cncn1-c1ccncc1NC(=O)c1c(N)nn2cc(F)cnc12 [I-N-283, 2-amino-6-fluoro-N-(4-(5-methyl-1H-imidazol-1-yl)pyridin-3-yl)pyrazolo[1,5-a]pyrimidine-3-carboxamide]	++ (Compounds with a Cisplatin sensitization value >0.02 μM but <0.2 μM are marked with “++.”)
CC(C)(C#N)c1cnc2c(C(=O)Nc3cncc(F)c3N3CCN(C4COC4)CC3)c(N)nn2c1 [I-N-144]	+++ (Compounds with a Cisplatin sensitization value of <0.02 μM are marked with “+++.”)
Nc1nn2cc(F)cnc2c1C(=O)Nc1cncc(F)c1N1CCN(C2COC2)CC1 [I-N-13, 2-amino-6-fluoro-N-(5-fluoro-4-(4-(oxetan-3-yl)piperazin-1-yl)pyridin-3-yl)pyrazolo[1,5-a]pyrimidine-3-carboxamide]	+++ (Compounds with a Cisplatin sensitization value of <0.02 μM are marked with “+++.”)
Nc1nn2cc(F)cnc2c1C(=O)Nc1cnccc1OC1CCN(C2COC2)CC1 [I-O-11, 2-amino-6-fluoro-N-(4-((1-(oxetan-3-yl)piperidin-4-yl)oxy)pyridin-3-yl)pyrazolo[1,5-a]pyrimidine-3-carboxamide]	+++ (Compounds with a Cisplatin sensitization value of <0.02 μM are marked with “+++.”)
COc1cncc(NC(=O)c2c(N)nn3cc(F)cnc23)c1C1CC1 [I-C-84, 2-amino-N-(4-cyclopropyl-5-methoxypyridin-3-yl)-6-fluoropyrazolo[1,5-a]pyrimidine-3-carboxamide]	++ (Compounds with a Cisplatin sensitization value >0.02 μM but <0.2 μM are marked with “++.”)
Nc1nn2cc(F)cnc2c1C(=O)Nc1cnccc1N1CCC(S(=O)(=O)N2CCC2)CC1 [I-N-271, 2-amino-N-(4-(4-(azetidin-1-ylsulfonyl)piperidin-1-yl)pyridin-3-yl)-6-fluoropyrazolo[1,5-a]pyrimidine-3-carboxamide]	+++ (Compounds with a Cisplatin sensitization value of <0.02 μM are marked with “+++.”)
Nc1nn2cc(F)cnc2c1C(=O)Nc1cncc(Cl)c1N1CCN2CCN(C3COC3)CC2C1 (stereo not drawn) [I-N-38, 2-amino-N-(5-chloro-4-(8-(oxetan-3-yl)hexahydro-1H-pyrazino[1,2-a]pyrazin-2(6H)-yl)pyridin-3-yl)-6-fluoropyrazolo[1,5-a]pyrimidine-3-carboxamide]	++ (Compounds with a Cisplatin sensitization value >0.02 μM but <0.2 μM are marked with “++.”)
Cc1nc(C(F)(F)F)cn1-c1ccncc1NC(=O)c1c(N)nn2cc(F)cnc12 [I-N-30, 2-amino-6-fluoro-N-(4-(2-methyl-4-(trifluoromethyl)-1H-imidazol-1-yl)pyridin-3-yl)pyrazolo[1,5-a]pyrimidine-3-carboxamide]	++ (Compounds with a Cisplatin sensitization value >0.02 μM but <0.2 μM are marked with “++.”)
CN1CCC(c2ccncc2NC(=O)c2c(N)nn3cc(C(C)(C)C#N)cnc23)CC1 [I-C-23, 2-amino-6-(2-cyanopropan-2-yl)-N-(4-(1-methylpiperidin-4-yl)pyridin-3-yl)pyrazolo[1,5-a]pyrimidine-3-carboxamide]	+ (Compounds with a Cisplatin sensitization value >0.2 μM but <5 μM are marked with “+.”)
CN(C)CCOc1ccncc1NC(=O)c1c(N)nn2cc(Cl)cnc12 [I-O-48, 2-amino-6-chloro-N-(4-(2-(dimethylamino)ethoxy)pyridin-3-yl)pyrazolo[1,5-a]pyrimidine-3-carboxamide]	++ (Compounds with a Cisplatin sensitization value >0.02 μM but <0.2 μM are marked with “++.”)
N#CCc1cnc2c(C(=O)Nc3cnccc3OCC(F)(F)F)c(N)nn2c1 [I-O-34, 2-amino-6-(cyanomethyl)-N-(4-(2,2,2-trifluoroethoxy)pyridin-3-yl)pyrazolo[1,5-a]pyrimidine-3-carboxamide]	++ (Compounds with a Cisplatin sensitization value >0.02 μM but <0.2 μM are marked with “++.”)
Nc1nn2cc(F)cnc2c1C(=O)Nc1cnccc1N1CCN2C(=O)OCC2C1 (stereo not drawn) [I-N-238, 2-amino-6-fluoro-N-(4-(3-oxotetrahydro-1H-oxazolo[3,4-a]pyrazin-7(3H)-yl)pyridin-3-yl)pyrazolo[1,5-a]pyrimidine-3-carboxamide]	++ (Compounds with a Cisplatin sensitization value >0.02 μM but <0.2 μM are marked with “++.”)

From patent US10787452B2 (Vertex Pharmaceuticals Incorporated, priority 2012, dated 2020)
